The term ΔTm denotes the change in melting temperature against a reference sample.

Test [1] deals with T1, Peregrin (Homo sapiens) (UniProt P55201).
T1 sequence (whole entry): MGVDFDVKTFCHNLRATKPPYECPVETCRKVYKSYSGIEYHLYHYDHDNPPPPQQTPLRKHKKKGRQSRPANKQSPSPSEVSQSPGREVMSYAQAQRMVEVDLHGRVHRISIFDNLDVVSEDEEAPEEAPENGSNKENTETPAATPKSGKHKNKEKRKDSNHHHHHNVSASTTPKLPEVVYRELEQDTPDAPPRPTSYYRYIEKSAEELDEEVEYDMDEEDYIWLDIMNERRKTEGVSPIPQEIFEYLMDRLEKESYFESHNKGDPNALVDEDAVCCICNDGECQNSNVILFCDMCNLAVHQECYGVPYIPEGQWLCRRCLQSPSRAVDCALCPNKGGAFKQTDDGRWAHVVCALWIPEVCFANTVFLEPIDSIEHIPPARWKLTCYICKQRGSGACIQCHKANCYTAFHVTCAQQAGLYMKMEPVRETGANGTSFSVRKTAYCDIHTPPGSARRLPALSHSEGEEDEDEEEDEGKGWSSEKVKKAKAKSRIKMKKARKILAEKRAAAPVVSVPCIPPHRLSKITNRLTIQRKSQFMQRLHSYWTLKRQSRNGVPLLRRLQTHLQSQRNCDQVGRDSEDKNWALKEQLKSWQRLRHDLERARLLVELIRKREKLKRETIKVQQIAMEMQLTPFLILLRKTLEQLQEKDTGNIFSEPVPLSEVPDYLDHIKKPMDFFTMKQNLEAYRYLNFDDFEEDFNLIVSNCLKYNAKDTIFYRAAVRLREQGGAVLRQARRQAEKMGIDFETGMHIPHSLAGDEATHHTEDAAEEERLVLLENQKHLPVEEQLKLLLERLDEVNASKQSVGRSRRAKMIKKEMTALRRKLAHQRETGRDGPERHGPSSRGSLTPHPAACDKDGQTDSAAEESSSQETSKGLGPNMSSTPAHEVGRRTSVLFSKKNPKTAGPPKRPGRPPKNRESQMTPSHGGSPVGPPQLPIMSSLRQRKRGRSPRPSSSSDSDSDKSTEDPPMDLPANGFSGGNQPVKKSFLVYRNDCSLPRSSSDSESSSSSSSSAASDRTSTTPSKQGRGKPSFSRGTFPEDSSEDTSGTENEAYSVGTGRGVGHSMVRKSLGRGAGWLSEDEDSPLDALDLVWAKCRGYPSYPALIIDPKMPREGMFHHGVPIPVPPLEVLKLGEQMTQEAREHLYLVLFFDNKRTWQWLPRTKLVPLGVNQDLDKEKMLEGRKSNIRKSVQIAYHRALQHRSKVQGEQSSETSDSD
The conditions noted are these: Compound concentration 20.0 uM, Protein concentration 2.0 uM, Result type QC Liability.

Test [2] has as its target Fibroblast growth factor receptor 3 (Homo sapiens) (UniProt P22607). The conditions noted are these: Compound concentration 20.0 uM, Protein concentration 2.0 uM, Result type QC Liability.
Description: Thermal Shift Assay. Domain: start/stop: P449-E759

Sequence of Fibroblast growth factor receptor 3 (Homo sapiens) (P22607 23-806 limits assumed): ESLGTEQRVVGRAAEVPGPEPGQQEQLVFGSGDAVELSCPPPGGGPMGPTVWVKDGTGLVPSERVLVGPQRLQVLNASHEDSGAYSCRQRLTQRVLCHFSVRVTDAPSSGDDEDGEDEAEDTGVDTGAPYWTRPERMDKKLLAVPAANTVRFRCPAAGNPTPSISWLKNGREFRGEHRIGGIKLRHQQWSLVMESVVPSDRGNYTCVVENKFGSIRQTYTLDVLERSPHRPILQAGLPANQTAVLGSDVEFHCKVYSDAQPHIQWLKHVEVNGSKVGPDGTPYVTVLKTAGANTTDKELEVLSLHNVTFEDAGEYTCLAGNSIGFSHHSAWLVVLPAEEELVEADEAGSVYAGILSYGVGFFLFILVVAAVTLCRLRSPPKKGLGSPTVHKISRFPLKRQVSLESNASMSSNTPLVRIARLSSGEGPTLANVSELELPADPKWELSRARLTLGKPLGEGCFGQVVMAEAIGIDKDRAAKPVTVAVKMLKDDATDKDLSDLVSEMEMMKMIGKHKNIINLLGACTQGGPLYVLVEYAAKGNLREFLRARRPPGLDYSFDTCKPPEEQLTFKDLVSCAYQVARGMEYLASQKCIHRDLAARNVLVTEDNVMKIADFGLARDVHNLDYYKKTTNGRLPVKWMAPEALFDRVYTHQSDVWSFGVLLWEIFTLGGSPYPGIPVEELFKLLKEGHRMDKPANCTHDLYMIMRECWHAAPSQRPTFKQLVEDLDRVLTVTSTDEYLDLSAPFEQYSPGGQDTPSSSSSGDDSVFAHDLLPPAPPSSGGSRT

Regarding `Cc1nccc(COC(=O)N2C[C@@H]3[C@@H](CNC(=O)c4ccc5[nH]nnc5c4)[C@@H]3C2)n1`, the figures for the ΔTm in test [1] and in test [2] were -2.37 °C and 0.43 °C, respectively.
The matching figures for `CN(C)CC#Cc1ccc2[nH]c3c(c2c1)-c1nc(N)ncc1CCC3`: -0.87 °C and 3.51 °C.
On the same counts, the results for `NC(=O)C1CCCc2c1[nH]c1ccc(Cl)cc21` (stereo unspecified) are -0.12 °C and 0.98 °C.
The matching figures for `CN[C@@H](C)C(=O)N[C@H](C(=O)N1CCC[C@H]1C(=O)N[C@H]1c2ccccc2C[C@H]1OCC#CC#CCO[C@@H]1Cc2ccccc2[C@@H]1NC(=O)[C@@H]1CCCN1C(=O)[C@@H](NC(=O)[C@H](C)NC)C1CCCCC1)C1CCCCC1`: -2.65 °C and 1.42 °C.
With `c1ccc2c(-c3coc4cc(-c5ccc(N6CCNCC6)cc5)cnc34)ccnc2c1`, the ΔTm is -2.26 °C in test [1] and 1.12 °C in test [2].
Regarding `Cc1ncsc1-c1ccc(CNC(=O)[C@@H]2C[C@H](O)CN2C(=O)[C@@H](NC(=O)C2(F)CC2)C(C)(C)C)c(OCCOc2ccc(CN3CCN(c4cc(-c5ccccc5O)nnc4N)CC3)cc2)c1` (relative stereo), the figures for the ΔTm in test [1] and in test [2] were 4.18 °C and -0.13 °C, respectively.
The matching figures for `O=C(O)c1ccc(CN2C[C@@H]3C[C@H]2CN3Cc2ccc(Oc3ccc(-c4ncco4)cc3)cc2)cc1`: -2.16 °C and 0.44 °C.
On the same counts, the results for `CCN(C(=O)c1cc(F)ccc1Oc1cncnc1N1CC2(CCN(C[C@H]3CC[C@H](NS(=O)(=O)CC)CC3)CC2)C1)C(C)C` are -0.92 °C and 0.56 °C.
The matching figures for `COc1ccc(CSc2nnc(-c3ccc4ncsc4c3)o2)cc1C(F)(F)F`: -1.83 °C and -7.8 °C.
On to `C[C@@]1(Cc2ccc(C#N)cc2)C(=O)N(c2cc(Cl)cc(Cl)c2)c2ncc(C(=O)NC3(c4nc(C5CCC5)no4)CC3)n21`, for which the figures for the ΔTm in test [1] and in test [2] were 3.75 °C and 3.32 °C, respectively.
On the same counts, the results for `C=CC(=O)Nc1ccc(C(=O)Nc2[nH]nc3c2CN(C(=O)N[C@H](CN(C)C)c2ccccc2)C3(C)C)cc1` are -0.82 °C and 7.32 °C.
As for `COc1cc(-c2nn([C@H]3CC[C@H](N4CCN(C(C)=O)CC4)CC3)c3ncnc(N)c23)ccc1NC(=O)c1cc2ccccc2n1C`, the ΔTm in test [1] is -2.71 °C; in test [2], 0.83 °C.
The matching figures for `CC1=C(C(=O)OCCO)[C@@H](c2ccc(C#N)cc2)NC(=O)N1c1cccc(C(F)(F)F)c1`: -1.72 °C and 0.42 °C.
The matching figures for `OC(c1ccc(-c2ccc(CN3CCN(Cc4ccncc4)CC3)cc2)c(F)c1)(C(F)(F)F)C(F)(F)F`: -2.07 °C and 0.64 °C.
In the case of `O=C(Nc1ccc(OC(F)(F)Cl)cc1)c1cnc(N2CC[C@@H](O)C2)c(-c2cc[nH]n2)c1`, the shift in melting temperature (ΔTm) in test [1] is -3.77 °C; in test [2], 0.66 °C.
On the same counts, the results for `CNC(=O)COc1cc2cc(Nc3nc(N4CCC(C(=O)N(C)C)CC4)ncc3Cl)cc(OC)c2n(C)c1=O` are -2.49 °C and 0.39 °C.
For `COc1ccc2c(O[C@@H]3C[C@H]4C(=O)N[C@]5(C(=O)NS(=O)(=O)C6(C)CC6)CC5/C=C\CCCCC[C@H](NC(=O)c5ccn(C)n5)C(=O)N4C3)cc(OC(C)C)nc2c1C` (stereo partly specified), the ΔTm in test [1] is -0.57 °C; in test [2], 0.93 °C.
Regarding `COc1ccc(-c2c(-c3ccccc3)oc3ncnc(O[C@H](C)CCCCC(=O)O)c23)cc1`, the shift in melting temperature (ΔTm) is -6.64 °C in test [1] and -0.48 °C in test [2].
For the compound `CC(=O)N1CCC(c2ccc(C(=O)NC(=N)N)cc2C(F)(F)F)CC1`, the shift in melting temperature (ΔTm) in test [1] is -2.69 °C; in test [2] it was 1.29 °C.
For the compound `Cc1ccccc1Oc1cc(-n2c(=O)cc(C(F)(F)F)[nH]c2=O)c2ccccc2c1Cl`, the ΔTm was -1.36 °C in test [1] and 0.76 °C in test [2].
For `O=c1cc(C2CCNCC2)n2nc3cccc(Cl)c3c2[nH]1`, the ΔTm in test [1] is -1.18 °C; in test [2], 0.45 °C.
As to `CC(C)c1nc2c(c3c1[C@@H](c1ccc(C(F)(F)F)cc1)OC31CCOCC1)[C@@H](O)CC(C)(C)C2`, the ΔTm in test [1] is -3.83 °C; in test [2], 0.98 °C.
For the compound `Cn1c(Nc2c(Cl)cccc2Cl)nc2ccc3nc[nH]c(=O)c3c21`, the ΔTm in test [1] is -0.59 °C; in test [2] it was 1.31 °C.
On to `Fc1ccc(Cl)cc1-c1nc(Nc2ccncc2)c2nccnc2n1`, for which the values for the thermal shift (ΔTm) in test [1] and in test [2] were -0.76 °C and 0.54 °C, respectively.
On the same counts, the results for `COc1cc2c(NC3CCN(C(C)C)CC3)nc(C3CCCCC3)nc2cc1OCCCN1CCCC1` are -0.55 °C and 0.95 °C.
In the case of `COCc1nc2cnc3cc(-c4c(C)noc4C)c(OC[C@H]4CCNC4)cc3c2n1[C@H](C)c1ccccc1`, the ΔTm in test [1] is -1.65 °C; in test [2], 0.6 °C.
Consider `COc1cc(Cl)c(C(=O)N[C@@H](CN[C@H]2CC[C@@H](N)CC2)Cc2ccc(C#N)cc2)cc1-c1ccc(CN[C@H](C)c2ccc(C)cc2)o1`, for which the values for the ΔTm in test [1] and in test [2] were -2.44 °C and 1.14 °C, respectively.
On the same counts, the results for `CNS(=O)(=O)c1ccc(N(C)C)c(Nc2ncnc3cc(OC)c(OC)cc23)c1` are -0.25 °C and 0.55 °C.
On the same counts, the results for `c1ccc(C2CCN(c3cnc4c(N5CCOCC5)nccn34)CC2)cc1` are -0.86 °C and 0.73 °C.
As to `Cn1ccc(Cn2cnc(-c3ccc(F)cc3)c2-c2ccnc3[nH]ccc23)n1`, the ΔTm in test [1] is -1.13 °C; in test [2] it was 0.54 °C.
For `O=C(O)CCn1c2c(c3ccccc31)C[C@H](NS(=O)(=O)c1ccc(F)cc1)CC2`, the values for the ΔTm in test [1] and in test [2] were -1.45 °C and 0.49 °C, respectively.
On the same counts, the results for `N#Cc1ccc(COc2ccc(Br)cc2CNCCO)cn1` are 0.18 °C and 0.63 °C.
Turning to `CCOC(=O)Nc1ccc2c(c1)N(C(=O)CN(CC)CC)c1ccccc1CC2`, the ΔTm in test [1] was -1.21 °C; in test [2], 0.66 °C.
